Experimental data as given in patent US20160058739A1, “USE OF PIDOTIMOD TO TREAT INFLAMMATORY BOWEL DISEASE” (POLICHEM SA, priority 2013, published 2016).
Non-standard residues stand in square brackets, D forms with d. Residues, ends and D or L forms follow the SMILES beside them. pGlu = O=C1CC[C@@H](C(=O)O)N1; Thz = O=C(O)[C@@H]1CSCN1

Tested on: patients with chronic diarrhoea caused by Crohn's disease or ulcerative colitis
Experiment: open-label pilot trial in patients with chronic diarrhoea caused by Crohn's disease or ulcerative colitis
Type: in vivo
Source text: Three patients with chronic diarrhoea caused by Crohn's disease without resection, aged 44 to 63 years (2 female) and three patients with chronic diarrhoea caused by ulcerative colitis, aged 50 to 65 years (1 female) were enrolled in an open-label pilot trial to receive twice a day the composition as per the Example 4 for 12 weeks.

[1] = composition as per Example 4 twice a day for 12 weeks, 3 Crohn's disease and 3 ulcerative colitis patients

O=C1CC[C@@H](C(=O)N2CSC[C@H]2C(=O)O)N1 [pidotimod, (4R)-3-(5-oxo-L-prolyl)-1,3-thiazolidine-4-carboxylic acid] ([pGlu]-[Thz]-OH)
role in inflammatory bowel disease (IBD) in controlling signs and symptoms such as chronic diarrhea (administered twice daily for 12 weeks, study conclusion): beneficial role
frequency of stools (composition as per Example 4 (oral solution, 5.10% pidotimod) twice a day for 12 weeks, 3 Crohn's disease and 3 ulcerative colitis patients): significantly decreased
bowel transit time [1]: prolonged
stool consistency [1]: became more solid
weight of stools [1]: significantly decreased
